Measured values from patent US11793782B2, “Therapeutic agents for neurodegenerative diseases” (priority 2017, dated 2023).

How the values were obtained:
[1] = test system: microtubule-associated protein 1A/1B-light chain 3-phosphatidylethanolamine conjugate (LC3-II); experiment: LC3-II levels in NPC1−/− mice; format: in vivo, mouse; conditions: 0.1 g/kg body weight daily from 3 weeks of age, sacrificed at 8 weeks
Experimental: The Niemann-Pick Disease Type C (NPC) mouse model shares a number of pathological features with Alzheimer's disease (AD) as described herein. […] Mice were sacrificed at 8 weeks of age. Levels of amyloid precursor protein C-terminal fragments (APP-CTFs) were evaluated relative to total amyloid precursor protein (APP) levels in the cerebellum for wild type, untreated wild type NPC1^−/− mice, and AL-treated wild type NPC1^−/− mice. Levels of microtubule-associated protein 1A/1B-light chain 3-phosphatidylethanolamine conjugate (LC3-II) were also evaluated relative to levels of tubulin loading control for wild type, untreated wild type NPC1^−/− mice, and AL-treated wild type NPC1^−/− mice.

[2] = test system: restless leg syndrome patients; experiment: Case studies, restless legs syndrome (IRLS score); format: in vivo, human; parameters: key to IRLS: IRLS 0 (no symptoms) to 40; >30 very severe, ≤10 mild
Description: A widely reported rating scale known as the International Restless Leg Syndrome Study Group Rating Scale (“IRLS”) was developed by the International Restless Legs Syndrome Study Group (“IRLSSG”) (http://www.irlssg.org/) (Walters et al., Validation of the International Restless Legs Syndrome Study Group rating scale for restless legs syndrome. Sleep medicine. 2003 Apr. 1; 4(2):121-32). The IRLS is a 10-item scale with scores ranging from 0 (no symptoms) to 40. Scores >30 are considered very severe, severe (Score 21-30), moderate (scores 11-20) and ≤10, mild. Use of the scale is common for clinical assessment, research and therapeutic trials with RLS. In one embodiment, treatment with leucine, acetyl-leucine, or a pharmaceutically acceptable salt thereof as described herein decreases the subject's International Restless Leg Syndrome Study Group Rating Scale (“IRLS”) compared to a baseline. In one embodiment, the IRLS is reduced compared to baseline by at least 10%, at least 20%, at least 30%, at least 40%, or at least 50%. In one embodiment, the IRLS is reduced by at least 60%, at least 70%, at least 80%, at least 90%, or 100%.
The patient in this case study was a person showing proximal weakness of the so lower limb. […] Upon consultation, they reported no sensory symptoms but complained of a restless leg syndrome at night and during resting periods of the day, occurring over the course of the last two years. Pre-treatment with dopamine agonist were without symptom relief. Serum creatine kinase activity was only mildly elevated at up to 400 IU/L. The patient was evaluated using the RLS diagnostic index (RLS-DI) (see Walters et al., Sleep Med 2003; 4(2):121-132;). The patient's International Restless Legs Syndrome Rating Scale score (IRLS) was 36, and thus a severe RLS was diagnosed. […] Re-introduction of the treatment re-declined the score to 8 after 2 weeks. Continuation of treatment over more than 22 weeks stabilized the IRLS score at 8.
The patient in this case study was a person showing proximal weakness of the lower limb. […] Upon consultation, they reported no sensory symptoms but complained of a restless leg syndrome at night and during resting periods of the day, occurring over the course of the last eight years. […] Serum creatine kinase activity was mildly elevated at 300 IU/L. Iron measurements and all additional lab investigations were normal. The patient was evaluated using the RLS-DI and the patient's IRLS was 32, and thus a moderate to severe RLS was diagnosed. […] Continuation of treatment over more than 28 weeks stabilized the IRLS score at 8.
The patient in this case study was a person showing mild proximal weakness of the upper and lower limbs slowly progressive. The patient had been diagnosed (genetically confirmed) with McArdle myopathy about 16 years ago. Upon consultation, they reported no sensory symptoms but complained about a severe fatigue and reduced stamina. The patient further reported a restless leg syndrome at night and during resting periods of the day, occurring over the course of the last 12 years. […] Serum creatine kinase activity was mildly elevated at 200 IU/L; however, the patient had 5 episodes of rhabdomyolysis during the past 20 years. Repeated iron measurements and all additional lab investigations were normal. The patient was evaluated using the RLS-DI and the patient's IRLS was 34, and thus a severe RLS was diagnosed. […] Continuation of treatment over more than 30 weeks stabilized the IRLS score at 10. In addition, the patient's fatigue declined (Fatigue Severit Scale: 9 (minimum) to 63 (maximum)) from 53 to 28.

[3] = test system: Mucolipidosis Type IIIA (MLIIIA) patient fibroblasts; experiment: Lysosomal volume via LysoTracker, MLIIIA fibroblasts; format: cell-based, human; conditions: 1 mM, 6 days
[4] = test system: Hexb−/− mouse (Sandhoff disease model); experiment: Bar crossing test, Sandhoff mouse; format: in vivo; conditions: 0.1 g/kg body weight from 3 weeks of age
Description: The bar crossing test is a method for assessing motor function in mice in which the mouse is placed hanging from the centre of a horizontal bar by its front limbs. A wild-type mouse with normal motor function will be able to engage its hind limbs and thereby move to one of the platforms at either end of the bar, and in doing so complete the test. An untreated Sandhoff mouse is able to complete the test up until around 11 weeks of age. After this point motor function and hind-limb mobility/engagement have deteriorated to the point to which the mouse cannot complete the test, and will drop from the bar onto the padded surface below. […] In FIG. 7 B, acetyl-leucine treatment of 0.1 g/kg body weight was provided from 3 weeks of age. The acetyl-leucine treated Sandhoff mice retained the ability to complete the test up to 13 weeks of age (inclusive). Data shown is the mean of 6 mice per group. […]

[5] = test system: GM1 Gangliosidosis patient; experiment: Case study, GM1 Gangliosidosis patient; format: in vivo, human; conditions: after one month
Description: The patient in this case study was a person who was genetically diagnosed with GM1 Gangliosidosis and who was not able to stand or walk by themself, was very limited in daily activities (eating, washing, dressing themself was not possible), and had ocular movement disorder, anarthria, and distinct problems in cognitive function and concentration (neurological examination was not possible).
The patient was started on therapy with acetyl-leucine at a dose of 1.5 g per day for the first week, followed by a dose of 3 g per day for the second week onwards.

CC(=O)NC(CC(C)C)C(=O)O (racemic) [acetyl-DL-leucine]
LC3-II levels relative to tubulin loading control [1]: lowering of LC3-II
IRLS ([2]; RLS Patient 1 (myotonic dystrophy type 2), 5 g per day, within 14 days, before 36): 26
IRLS ([2]; RLS Patient 1, 2 weeks after re-introduction of the treatment): 8
IRLS ([2]; RLS Patient 1, after another 5 weeks): 9
IRLS ([2]; RLS Patient 1, continuation of treatment over more than 22 weeks): 8
IRLS ([2]; RLS Patient 1, interruption of 4 weeks after week 12 of the treatment): 28
IRLS ([2]; RLS Patient 2 (myotonic dystrophy type 2), 5 g per day, within 14 days, before 32): 22
IRLS ([2]; RLS Patient 2, after another 5 weeks): 7
IRLS ([2]; RLS Patient 2, continuation of treatment over more than 28 weeks): 8
IRLS ([2]; RLS Patient 3 (McArdle myopathy), 5 g per day, within 21 days, before 34): 20
IRLS ([2]; RLS Patient 3, after another 10 weeks): 10
IRLS ([2]; RLS Patient 3, continuation of treatment over more than 30 weeks): 10
Fatigue Severit Scale ([2]; RLS Patient 3, scale 9 (minimum) to 63 (maximum), declined from 53): 28
LysoTracker fluorescence relative to untreated disease fibroblasts [3]: trend in reducing LysoTracker fluorescence
Age up to which ability to complete the bar crossing test was retained ([4]; Sandhoff mice, untreated around 11 weeks): up to 13 weeks of age
Motor function in bar-crossing test ([4]; Sandhoff mouse model): improved motor function and hind-limb mobility/engagement
SARA ([5]; 3 g per day, baseline 35/40): 35/40
Clinical observation [5]: stable general condition, increased gait (more fluent), and stable stance in natural position
mRDS ([5]; baseline 15): 16
EQ-5D-5L visual scale ([5]; baseline 50): 60
